Consider three molecules from ChEMBL document CHEMBL1142715, “Discovery of new tetracyclic tetrahydrofuran derivatives as potential broad-spectrum psychotropic agents” (J Med Chem, 2005).

By ED50 is commonly meant the dose at which the effect has come halfway, by size or by number of responders. Usually pKi stands for the negative decadic logarithm of the Ki, by convention in mol/L. High values mean a small Ki, low ones a large Ki.

Assay [1] is filed under the species Rattus norvegicus. The experiment in a line: Effective dose for antagonistic activity against m-chlorophenyl-piperazine induced anxiety in rats. In kind it is functional.
Assay [2] concerns Rattus norvegicus. The experiment in a line: In vivo effective dose to inhibit tryptamine-induced bilateral convulsions in rats. In kind it is functional.
Assay [3] has as its system Mus musculus. Nature of the assay: In vivo effective dose for reversal of RO-4-1284 induced hypothermia in mouse. Type of assay: functional.
The subject of assay [4] is Rattus norvegicus. The experiment in a line: In vivo effective dose to inhibit apomorphine induced agitation in rats upon subcutaneous administration. Type of assay: functional. Conditions: sc.
Assay [5] deals with Rattus norvegicus. Nature of the assay: In vivo effective dose for reversal of tryptamine-induced cyanosis in rats. Type of assay: functional.
The target in assay [6] is T1, 5-hydroxytryptamine receptor 2C (Homo sapiens, UniProt P28335).
T1 sequence (P28335 whole entry): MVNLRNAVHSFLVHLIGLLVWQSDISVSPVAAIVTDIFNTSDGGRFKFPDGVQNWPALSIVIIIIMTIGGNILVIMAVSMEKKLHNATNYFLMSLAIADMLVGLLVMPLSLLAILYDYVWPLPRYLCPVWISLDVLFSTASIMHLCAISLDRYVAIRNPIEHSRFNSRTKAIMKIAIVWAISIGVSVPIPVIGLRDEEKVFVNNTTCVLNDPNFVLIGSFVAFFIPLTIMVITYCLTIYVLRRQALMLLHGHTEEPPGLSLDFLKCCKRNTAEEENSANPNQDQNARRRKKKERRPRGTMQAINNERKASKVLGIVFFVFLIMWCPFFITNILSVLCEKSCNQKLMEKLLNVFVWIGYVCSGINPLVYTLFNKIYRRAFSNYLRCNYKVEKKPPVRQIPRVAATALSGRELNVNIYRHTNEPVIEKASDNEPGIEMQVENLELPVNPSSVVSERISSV
Description: Inhibition of [3H]mesulergine binding to human 5-hydroxytryptamine 2C receptor

The target in assay [7] is Norepinephrine transporter (Rattus norvegicus, UniProt Q9WTR4). The experiment in a line: Inhibition of [3H]nisoxetine binding to rat Norepinephrine transporter.

The structures appear in SMILES notation. pKi: −log10 of the molar value.

Norepinephrine transporter, sequence (Q9WTR4 whole entry): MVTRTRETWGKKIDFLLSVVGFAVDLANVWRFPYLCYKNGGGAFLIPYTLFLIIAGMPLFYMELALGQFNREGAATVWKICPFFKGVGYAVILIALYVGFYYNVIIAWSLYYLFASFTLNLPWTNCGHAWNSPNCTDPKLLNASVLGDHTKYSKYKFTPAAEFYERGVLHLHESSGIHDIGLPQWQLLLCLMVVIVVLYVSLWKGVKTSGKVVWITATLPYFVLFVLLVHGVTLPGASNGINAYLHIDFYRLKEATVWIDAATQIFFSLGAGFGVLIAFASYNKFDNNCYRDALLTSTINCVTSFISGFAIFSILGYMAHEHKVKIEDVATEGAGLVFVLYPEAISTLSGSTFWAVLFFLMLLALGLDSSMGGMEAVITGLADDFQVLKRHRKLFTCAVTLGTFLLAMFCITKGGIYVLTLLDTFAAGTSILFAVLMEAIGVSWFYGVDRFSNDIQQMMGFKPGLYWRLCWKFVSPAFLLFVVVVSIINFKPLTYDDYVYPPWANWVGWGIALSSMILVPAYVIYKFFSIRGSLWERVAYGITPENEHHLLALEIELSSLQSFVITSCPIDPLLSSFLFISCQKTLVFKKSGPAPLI

For `CN1CCN(C2=Nc3cc(Cl)ccc3Nc3ccccc32)CC1` [CLOZAPINE], the ED50 in assay [1] is greater than 2.5 mg/kg; in assay [2], 0.22 mg/kg; in assay [3] it was greater than 80 mg/kg; in assay [4] it was 8.2 mg/kg; in assay [5] it was 0.26 mg/kg.
As for `CN(C)C[C@@H]1CC2c3ccccc3Oc3ccc(Br)cc3[C@H]2O1` (stereo partly drawn), the pKi in assay [6] was 7.77; in assay [7], less than 5.26.
For `Cc1cc2c(s1)Nc1ccccc1N=C2N1CCN(C)CC1` [OLANZAPINE], the median effective dose (ED50) in assay [1] is 0.44 mg/kg; in assay [2], 0.086 mg/kg; in assay [3] it was greater than 10 mg/kg; in assay [4], 0.26 mg/kg; in assay [5] it was 0.032 mg/kg. The negative-log Ki (pKi) in assay [7] is 6.02.
